The nature of series [1]: Serum PDGF-AA by ELISA in NOD-scid mice with osmotic pump. The format is in vivo, mouse. As to conditions: control NOD-scid mice, subcutaneous osmotic pump primed with 4 μg PDGF-AA. From the text: Exposure of islets from young human donors to purified PDGF-AA stimulates ERK-dependent signaling pathways culminating in enhanced β-cell proliferation. However, these studies have not yet shown if PDGF-AA activation is sufficient to drive regeneration of functional β-cell mass in vivo. To assess this question, equivalent numbers of size-matched islets from young (ages 1-10 years) and control adult donors (age >20 years) were transplanted into NOD-scid mice.
A general note: An ELISA detects its analyte on a solid surface through an enzyme-linked reagent.

The subject of series [2] is human EZH2 locus. Nature of the series: EZH2 locus ChIP analysis with anti-E2F1 antibody in human juvenile islets. Type of series: cell-based. As to conditions: juvenile human islets exposed to PDGF-AA. Here is the method:
ChIPs were performed using a chromatin immunoprecipitation kit from Millipore. Briefly, freshly isolated mouse pancreatic islets or cultured human islets after the indicated treatments were pooled, and fixed with 2% formaldehyde for cross-linking for 20 min at room temperature (25° C.). After washing, islets were dissolved in SDS lysis buffer containing a proteinase inhibitor cocktail followed by sonication to shear the chromatin. Precleared chromatin from 150 to 300 islets was used for each ChIP sample with incubation of 1 to 5 μg of the appropriate antibodies at 4° C. overnight. The antibodies used in the ChIP assays included mouse anti-E2F1 (Millipore), rabbit anti-E2F4 (Santa Cruz Biotechnologies), rabbit or mouse polyclonal IgG (Millipore). […] After measurement of DNA concentration by PicoGreen DNA assay (Invitrogen), equivalent amounts of chromatin DNA from every sample was quantified by real-time qPCR in ABI Prism 7300 detection system (Applied Biosystems). […] Afterwards, human islets were processed in a similar way as in mouse islet studies for immunostaining of insulin, glucagon, PDX1 and BrdU. β-Cell proliferation rate was determined by quantifying percentage of insulin+ cells with BrdU+. More than 50 islets per group were counted for determining cultured human islet β-cell proliferation rate.

Series [3] concerns EZH2. Nature of the series: EZH2/EZH1 mRNA in cultured human islets (real-time RT-PCR). Type of series: cell-based. As to conditions: PDGF-AA 50 ng/ml, 2 days. The method, then: Total RNA from freshly isolated or cultured islets after indicated treatments were purified using the Absolutely RNA miniprep purification kit (Stratagene) according to the manufacturer's instructions. RNA concentration was measured with a RiboGreen RNA quantification assay (Invitrogen). One-step quantitative RT-PCR was performed and analysed using an ABI Prism 7300 detection system (Applied Biosystems) with TaqMan one-step RTPCR Master Mix Reagents and appropriate amounts (10-100 ng) of islet total RNA as the template. We calculated the ratio of mRNA for the gene of interest to the amount of internal control mRNA of peptidylprolyl isomerase A (cyclophilin A, PPIA), and then normalized the ratio for each gene to its median. For islet studies, human islets were isolated either at Pittsburgh University Medical Center or the University of Alabama, Birmingham. Eight independent human islet preparations from juvenile donors at the age of 8 months, 1.0, 1.5, 2, 3, 4, 5 and 6 years, and three adult islet preparations from donors at the age of 39, 48 and 56 years were used in this study. After isolation, fresh islets were hand-picked and transferred to RPMI-1640 medium supplemented with 0.5% FBS, 0.2% BSA and 2% penicillin/streptomycin for an overnight recovery before experiments. […] To detect in vitro human islet β-cell proliferation stimulated by PDGF-AA, human islets were exposed to 50 μM BrdU for 24 h. Afterwards, human islets were processed in a similar way as in mouse islet studies for immunostaining of insulin, glucagon, PDX1 and BrdU. β-Cell proliferation rate was determined by quantifying percentage of insulin+ cells with BrdU+. More than 50 islets per group were counted for determining cultured human islet β-cell proliferation rate.
Background: In qPCR the cycle at which signal appears reflects the starting amount.

The subject of series [4] is INSULIN+ cells in human islet grafts. Nature of the series: Human β-cell replication in islets transplanted into NOD-scid mice with PDGF-AA infusion. The format is in vivo. The source says:
Exposure of islets from young human donors to purified PDGF-AA stimulates ERK-dependent signaling pathways culminating in enhanced β-cell proliferation. However, these studies have not yet shown if PDGF-AA activation is sufficient to drive regeneration of functional β-cell mass in vivo. To assess this question, equivalent numbers of size-matched islets from young (ages 1-10 years) and control adult donors (age >20 years) were transplanted into NOD-scid mice. […] PDGF-AA infusion stimulated β-cell expansion in human islet grafts. A 200% increase of INSULIN^+ cell BrdU incorporation in grafts from young human donors (n=3 independent juvenile donors, three week PDGF-AA infusion; FIG. 26B-C). By contrast, we observed no increase of BrdU incorporation by INSULIN^+ cells in adult islet grafts (n=2), as expected based on our prior observation that adult β-cells no longer express Pdgf receptor α or Pdgf receptor β. Promoting the expression of Pdgf receptor on adult islet β-cells, e.g. by promoting Wnt signaling and/or preventing DNA methylatransferase activity, will render these adult islet β-cells sensitive to PGF-AA infusion.

Setting [5] is: grafts from young human donors, three week PDGF-AA infusion.

Take “PDGF-AA: recombinant human PDGF-AA, a homodimer of PDGF alpha polypeptides”: the “serum PDGF-AA levels” value in series [1] is given as “Increased”. Moreover, the “association of E2F1 with the human EZH2 locus (ChIP)” value in series [2] is “stimulated association of E2F1”. In addition, the “EZH2 mRNA levels” value in series [3] (adult human islets) is on record as “not induced”. In addition, in series [3] (juvenile human islets), the “EZH2 mRNA levels” value is “increased”. Further, the “BrdU incorporation by INSULIN+ cells” value in series [4] (adult human islet grafts, PDGF-AA infusion) is listed as “no increase”. Further, in series [4] (setting [5]), the “INSULIN+ cell BrdU incorporation (in words)” value is on record as “Increase” and the “increase of INSULIN+ cell BrdU incorporation” value was found to be 200%.

Source of the values: patent publication US20150174202A1, “Methods and Compositions for Modulating Beta Cell Proliferation” (The Board of Trustees of the Leland Stanford Junior …, priority 2011, published 2015).
